pIC50: −log10 of the molar value.

This is an account of results in ChEMBL document CHEMBL5576125, “Discovery of Pyrazolopyrazines as Selective, Potent, and Mutant-Active MET Inhibitors with Intracranial Efficacy” (J Med Chem, 2024).

Data set [1] has as its target Hepatocyte growth factor receptor (Homo sapiens, UniProt P08581, Y1230H). Kind of data set: Displacement of tracer 236 from N-terminal GST-tagged recombinant human MET Y1230H mutant (956 to end residues) expressed in Sf9 insect cells incubated for 1 hr by TR-FRET assay.
A short description of data set [2]: Metabolic stability in human hepatocytes assessed as clearance at 2 uM measured upto 120 mins by LC-MS/MS analysis. In kind it is ADME, cell-based, Hepatocyte.
A short description of data set [3]: Metabolic stability in mouse hepatocytes assessed as clearance at 2 uM measured upto 120 mins by LC-MS/MS analysis. Format: ADME, cell-based, Hepatocyte.
Data set [4] is described as follows: Displacement of tracer 236 from N-terminal GST-tagged recombinant human MET exon 14 deletion mutant (956 to end residues) expressed in Sf9 insect cells incubated for 1 hr by TR-FRET assay. (Time-resolved FRET reads energy transfer from a long-lived donor to a nearby acceptor.)
In data set [5] the target is T1, Hepatocyte growth factor receptor (Homo sapiens, UniProt P08581, D1228N). The experiment in a line: Inhibition of MET D1228N mutant (unknown origin) transfected in mouse NIH3T3 cells incubated for 1 hr by In-Cell Western assay. In kind it is cell-based.
T1 sequence (P08581 25-1390 D1228N limits assumed): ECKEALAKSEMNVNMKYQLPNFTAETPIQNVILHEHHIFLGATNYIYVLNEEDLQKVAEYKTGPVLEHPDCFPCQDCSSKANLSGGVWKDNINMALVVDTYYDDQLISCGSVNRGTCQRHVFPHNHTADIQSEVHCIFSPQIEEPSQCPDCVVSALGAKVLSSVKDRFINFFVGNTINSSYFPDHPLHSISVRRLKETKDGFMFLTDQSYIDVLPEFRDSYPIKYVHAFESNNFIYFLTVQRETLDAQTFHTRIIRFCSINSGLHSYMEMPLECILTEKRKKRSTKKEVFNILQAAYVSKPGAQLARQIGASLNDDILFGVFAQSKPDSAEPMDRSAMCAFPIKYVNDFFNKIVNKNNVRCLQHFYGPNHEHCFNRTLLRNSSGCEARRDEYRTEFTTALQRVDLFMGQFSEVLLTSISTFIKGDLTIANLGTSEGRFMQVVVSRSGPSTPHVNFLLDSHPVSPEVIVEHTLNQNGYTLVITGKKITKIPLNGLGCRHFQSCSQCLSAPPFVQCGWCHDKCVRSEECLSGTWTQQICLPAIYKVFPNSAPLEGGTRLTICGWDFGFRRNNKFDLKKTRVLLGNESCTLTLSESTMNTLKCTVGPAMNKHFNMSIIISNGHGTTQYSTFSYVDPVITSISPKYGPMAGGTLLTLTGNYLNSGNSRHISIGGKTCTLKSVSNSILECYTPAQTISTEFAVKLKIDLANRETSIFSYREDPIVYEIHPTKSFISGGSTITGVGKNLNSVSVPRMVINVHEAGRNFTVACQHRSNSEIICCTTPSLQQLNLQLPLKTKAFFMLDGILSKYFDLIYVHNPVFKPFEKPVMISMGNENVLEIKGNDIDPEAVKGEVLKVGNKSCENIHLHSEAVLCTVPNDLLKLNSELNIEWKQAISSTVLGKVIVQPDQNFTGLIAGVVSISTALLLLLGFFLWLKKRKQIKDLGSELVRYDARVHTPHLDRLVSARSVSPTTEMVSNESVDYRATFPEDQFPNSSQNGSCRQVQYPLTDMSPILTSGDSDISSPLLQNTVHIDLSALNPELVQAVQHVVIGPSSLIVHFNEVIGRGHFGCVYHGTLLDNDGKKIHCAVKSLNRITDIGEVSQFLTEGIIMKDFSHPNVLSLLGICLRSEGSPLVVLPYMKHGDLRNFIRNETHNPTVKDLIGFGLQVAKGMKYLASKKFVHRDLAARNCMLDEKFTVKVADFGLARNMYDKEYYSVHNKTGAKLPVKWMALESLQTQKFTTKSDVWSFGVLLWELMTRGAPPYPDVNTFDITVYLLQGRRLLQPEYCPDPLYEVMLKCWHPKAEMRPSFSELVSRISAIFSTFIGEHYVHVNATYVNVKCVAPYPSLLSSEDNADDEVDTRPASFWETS
The target of data set [6] is T1, Hepatocyte growth factor receptor. Kind of data set: Displacement of tracer 236 from N-terminal GST-tagged recombinant human MET D1228N mutant (956 to end residues) expressed in Sf9 insect cells incubated for 1 hr by TR-FRET assay.
Data set [7] in a line: Displacement of tracer 236 from N-terminal GST-tagged recombinant human MET […] mutant (956 to end residues) expressed in Sf9 insect cells incubated for 1 hr by TR-FRET assay.
Data set [8] concerns the target Hepatocyte growth factor receptor (Homo sapiens, UniProt P08581, F1200I). Kind of data set: Displacement of tracer 236 from N-terminal GST-tagged recombinant human MET F1200I mutant (956 to end residues) expressed in Sf9 insect cells incubated for 1 hr by TR-FRET assay.
Data set [9] in a line: Apparent permeability across apical to basolateral side in MDCKII-MDR1 cells at 1 uM incubated for 2 hrs in orbital shaker by LC-MS/MS analysis. In kind it is ADME, cell-based, Canis lupus familiaris. The note with it: dog, MDCK-MDR1.
The nature of data set [10]: Efflux ratio of apparent permeability across basolateral to apical over apical to basolateral side in MDCKII-MDR1 cells at 1 uM incubated for 2 hrs in orbital shaker by LC-MS/MS analysis. Format: ADME, cell-based, Canis lupus familiaris. Conditions: dog, MDCK-MDR1.
In data set [11] the target is Vascular endothelial growth factor receptor 2 (Homo sapiens, UniProt P35968). Kind of data set: Inhibition of VEGFR-2 (unknown origin) by cell based assay. In kind it is toxicity.
Chain of Vascular endothelial growth factor receptor 2 (P35968 whole entry): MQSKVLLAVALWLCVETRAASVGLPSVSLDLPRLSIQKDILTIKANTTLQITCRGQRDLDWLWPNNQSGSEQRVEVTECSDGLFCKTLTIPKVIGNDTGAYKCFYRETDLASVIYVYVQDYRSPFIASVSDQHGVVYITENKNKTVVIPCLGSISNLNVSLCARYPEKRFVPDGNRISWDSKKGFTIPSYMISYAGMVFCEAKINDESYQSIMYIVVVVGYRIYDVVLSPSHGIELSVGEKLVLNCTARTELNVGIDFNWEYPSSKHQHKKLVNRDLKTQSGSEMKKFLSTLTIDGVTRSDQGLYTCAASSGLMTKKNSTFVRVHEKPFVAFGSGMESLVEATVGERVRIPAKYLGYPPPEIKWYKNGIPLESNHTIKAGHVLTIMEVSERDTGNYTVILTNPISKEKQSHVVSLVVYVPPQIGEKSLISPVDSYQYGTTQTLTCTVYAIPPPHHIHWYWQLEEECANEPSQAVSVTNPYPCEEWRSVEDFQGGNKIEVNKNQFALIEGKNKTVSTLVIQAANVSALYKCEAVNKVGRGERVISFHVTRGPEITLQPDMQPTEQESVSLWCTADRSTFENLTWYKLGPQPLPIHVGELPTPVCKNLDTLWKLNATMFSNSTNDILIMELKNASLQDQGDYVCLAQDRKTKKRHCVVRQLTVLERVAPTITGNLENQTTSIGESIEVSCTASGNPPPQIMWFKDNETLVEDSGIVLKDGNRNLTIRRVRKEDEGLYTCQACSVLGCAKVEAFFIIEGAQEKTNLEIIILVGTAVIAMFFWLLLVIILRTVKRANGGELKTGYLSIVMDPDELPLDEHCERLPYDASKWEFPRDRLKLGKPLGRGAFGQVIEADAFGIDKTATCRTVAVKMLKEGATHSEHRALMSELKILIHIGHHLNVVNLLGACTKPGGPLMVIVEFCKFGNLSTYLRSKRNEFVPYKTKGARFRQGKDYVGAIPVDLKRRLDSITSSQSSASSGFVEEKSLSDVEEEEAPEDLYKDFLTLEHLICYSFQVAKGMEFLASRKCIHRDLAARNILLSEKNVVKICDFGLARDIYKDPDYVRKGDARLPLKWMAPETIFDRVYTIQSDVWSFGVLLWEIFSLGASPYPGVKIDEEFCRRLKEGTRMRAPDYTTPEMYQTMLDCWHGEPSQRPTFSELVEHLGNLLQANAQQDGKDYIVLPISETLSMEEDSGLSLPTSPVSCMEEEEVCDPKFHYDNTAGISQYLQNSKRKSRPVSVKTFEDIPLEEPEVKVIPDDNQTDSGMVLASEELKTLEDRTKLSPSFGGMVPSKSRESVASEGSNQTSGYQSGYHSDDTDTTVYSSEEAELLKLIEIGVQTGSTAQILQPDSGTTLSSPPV

Chain of Hepatocyte growth factor receptor (Homo sapiens, UniProt P08581, Y1230H) (P08581 25-1390 Y1230H limits assumed): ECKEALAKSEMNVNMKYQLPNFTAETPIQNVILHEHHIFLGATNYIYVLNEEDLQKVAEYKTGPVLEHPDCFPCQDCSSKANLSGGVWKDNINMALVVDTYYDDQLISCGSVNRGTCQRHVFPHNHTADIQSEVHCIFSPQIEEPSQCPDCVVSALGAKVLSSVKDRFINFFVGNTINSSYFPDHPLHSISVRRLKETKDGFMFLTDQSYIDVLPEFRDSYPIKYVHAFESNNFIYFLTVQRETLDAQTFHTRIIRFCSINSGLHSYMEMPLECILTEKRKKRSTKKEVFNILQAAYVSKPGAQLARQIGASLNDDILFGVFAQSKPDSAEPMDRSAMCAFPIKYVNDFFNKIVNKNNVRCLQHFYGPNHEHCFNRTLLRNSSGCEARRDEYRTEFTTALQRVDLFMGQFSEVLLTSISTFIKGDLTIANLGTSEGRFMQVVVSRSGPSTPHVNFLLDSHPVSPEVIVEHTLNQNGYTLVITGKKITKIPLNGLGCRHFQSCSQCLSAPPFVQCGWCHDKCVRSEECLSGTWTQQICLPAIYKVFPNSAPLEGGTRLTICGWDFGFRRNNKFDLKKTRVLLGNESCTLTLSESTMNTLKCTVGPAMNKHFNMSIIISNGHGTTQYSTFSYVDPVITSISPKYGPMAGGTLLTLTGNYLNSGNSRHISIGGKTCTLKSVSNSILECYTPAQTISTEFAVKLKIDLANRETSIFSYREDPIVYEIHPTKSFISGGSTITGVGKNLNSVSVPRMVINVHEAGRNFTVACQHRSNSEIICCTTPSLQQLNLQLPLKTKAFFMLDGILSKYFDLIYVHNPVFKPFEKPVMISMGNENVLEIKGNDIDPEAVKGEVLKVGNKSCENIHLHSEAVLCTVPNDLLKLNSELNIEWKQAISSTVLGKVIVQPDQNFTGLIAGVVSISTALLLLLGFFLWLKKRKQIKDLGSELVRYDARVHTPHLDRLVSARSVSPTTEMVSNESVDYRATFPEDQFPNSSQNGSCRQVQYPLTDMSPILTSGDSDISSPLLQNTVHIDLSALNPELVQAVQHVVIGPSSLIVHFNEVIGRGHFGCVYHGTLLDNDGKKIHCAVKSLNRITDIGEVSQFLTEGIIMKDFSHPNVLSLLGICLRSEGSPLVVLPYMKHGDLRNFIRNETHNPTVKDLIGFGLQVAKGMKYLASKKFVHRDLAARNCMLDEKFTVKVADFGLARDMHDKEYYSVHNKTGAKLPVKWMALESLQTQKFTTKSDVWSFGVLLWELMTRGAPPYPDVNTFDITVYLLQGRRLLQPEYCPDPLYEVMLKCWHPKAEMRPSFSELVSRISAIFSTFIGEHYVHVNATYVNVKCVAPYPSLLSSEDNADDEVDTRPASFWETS

For `Cn1ccc([C@H]2C[C@H](N(c3cc(F)c(NC(=O)c4ccnn(-c5ccc(F)cn5)c4=O)cc3Cl)c3nccn4nccc34)C2)n1`, the pIC50 was 8.15 in data set [1]; 8.22 in data set [4]; 7.55 in data set [5]; 8.05 in data set [6]; 7.44 in [7]; 6.83 in data set [8]. The CLhep predicted at 2 µM is 9 mL/min/kg in data set [2] and 31 mL/min/kg in data set [3]. Further, the Papp A→B at 2 h, 1 µM in data set [9] amounted to 5 ×10⁻⁶ cm/s.
As to `CCN(c1cc(F)c(NC(=O)c2ccnn(-c3ccc(F)cc3)c2=O)cc1F)c1cccn2nccc12`, the pIC50 is 7.42 in data set [1]; 7.44 in data set [4]; 6.70 in data set [5]; 7.19 in data set [6]; 6.76 in data set [7]; 6.21 in [8].
`Cn1ccc(CCN(c2cc(F)c(NC(=O)c3ccnn(-c4ccc(F)cn4)c3=O)cc2F)c2cccn3nccc23)n1`: the negative-log IC50 (pIC50) was 8.70 in data set [1]; 7.60 in [5]; 8.40 in data set [6]; 7.72 in [7]; 7.24 in data set [8].
On to `Cc1cc2c(N(c3cc(F)c(NC(=O)c4ccnn(-c5ccc(F)cn5)c4=O)cc3F)[C@H]3C[C@H](c4ccn(C)n4)C3)nccn2n1`, for which the pIC50 in data set [1] was 6.12; in data set [4], 6.40; in data set [5], < 5.30; in [6], 5.75; in data set [8], 5.30. Further, the efflux ratio at 2 h, 1 µM in [10] was 0.9.
`CC(C)(C#N)CN(c1cc(F)c(NC(=O)c2ccnn(-c3ccc(F)cc3)c2=O)cc1F)c1cccn2nccc12`: the pIC50 in [1] is 8.15; in [5], 7.60; in data set [6], 8.10; in data set [7], 7.28; in [8], 6.49.
Consider `CC(C)N(c1cc(F)c(NC(=O)c2ccnn(-c3ccc(F)cc3)c2=O)cc1F)c1cccn2nccc12`, for which the pIC50 is 7.04 in data set [1]; 7.15 in [4]; 6.47 in data set [5]; 7.07 in data set [6]; 6.53 in [7]; 6.12 in data set [8].
`Cc1cc(N(c2nccn3nccc23)[C@H]2C[C@H](c3ccn(C)n3)C2)c(F)cc1NC(=O)c1ccnn(-c2ccc(F)cn2)c1=O`: the pIC50 in data set [1] was 8.30; in [5] it was 7.39; in data set [6] it was 8.00; in data set [7] it was 7.19; in [8], 6.66. Besides, the CLhep predicted at 2 µM in data set [2] is 22 mL/min/kg; in data set [3] it was 17 mL/min/kg. The efflux ratio at 2 h, 1 µM in data set [10] came out at 0.9. In addition, in [9], the Papp A→B at 2 h, 1 µM amounted to 4 ×10⁻⁶ cm/s.
With `Cn1ccc([C@H]2C[C@H](N(c3cc(Cl)c(NC(=O)c4ccnn(-c5ccc(F)cn5)c4=O)cc3F)c3nccn4nccc34)C2)n1`, the negative logarithm of the IC50 (pIC50) in [1] was 7.89; in [4], 7.92; in data set [5], 7.01; in data set [6], 7.68; in [7], 6.90; in data set [8], 6.32. In addition, the CLhep predicted at 2 µM in data set [2] was 5 mL/min/kg; in data set [3], 9 mL/min/kg. Moreover, the efflux ratio at 2 h, 1 µM in [10] was 1. Also, in [9], the Papp A→B at 2 h, 1 µM is 6 ×10⁻⁶ cm/s.
As to `CC(C)(C#N)CN(c1cc(F)c(NC(=O)c2ccnn(-c3ccc(F)cn3)c2=O)cc1F)c1cccn2nccc12`, the pIC50 in [1] was 8.70; in [4], 8.52; in [5], 7.24; in data set [6], 8.30; in [7], 7.41; in data set [8] it was 7.02.
Take `COc1cc(N(c2cc(F)c(NC(=O)c3ccnn(-c4ccc(F)cn4)c3=O)cc2F)[C@H]2C[C@H](c3ccn(C)n3)C2)c2ccnn2c1`: the pIC50 in data set [1] is 7.77; in data set [4] it was 7.80; in data set [5], 7.66; in data set [6] it was 7.96; in data set [7], 7.49; in data set [8] it was 7.27. For the same compound, the CLhep predicted at 2 µM in data set [2] was 12 mL/min/kg; in data set [3], 38 mL/min/kg.
`COCCNCc1ccc(-c2cc3nccc(Oc4ccc(NC(=S)NC(=O)Cc5ccc(F)cc5)cc4F)c3s2)nc1` [GLESATINIB]: in data set [11], the negative logarithm of the IC50 (pIC50) is 6.76.
With `O=C(Nc1cc(F)c(Oc2cccn3nccc23)cc1F)c1ccnn(-c2ccc(F)cc2)c1=O`, the pIC50 in data set [1] was 7.08; in data set [4], 7.57; in data set [5], 5.78; in [6], 6.78; in data set [7], 6.14; in data set [8], 5.30.
Regarding `CO[C@H]1C[C@@H](N(c2cc(F)c(NC(=O)c3ccnn(-c4ccc(F)cn4)c3=O)cc2F)c2cccn3nccc23)C1`, the negative logarithm of the IC50 (pIC50) is 8.22 in data set [1]; 8.40 in data set [4]; 7.41 in data set [5]; 8.15 in data set [6]; 7.34 in [7]; 6.77 in data set [8].
`O=C(Nc1cc(F)c(N(c2cccn3nccc23)C2CCC2)cc1F)c1ccnn(-c2ccc(F)cc2)c1=O`: the pIC50 in data set [1] is 7.52; in [4] it was 7.80; in data set [5] it was 6.80; in [6] it was 7.62; in data set [7] it was 7.24; in data set [8] it was 6.65.
Take `Cn1ccc([C@H]2C[C@H](N(c3cc(F)c(NC(=O)c4ccnn(-c5ccc(F)cn5)c4=O)cc3F)c3cccn4nccc34)C2)n1`: the pIC50 in data set [1] was 8.40; in data set [5], 7.70; in [6] it was 8.30; in data set [7], 7.92; in [8] it was 7.44. In addition, the CLhep predicted at 2 µM in data set [2] is 21 mL/min/kg; in [3], 77 mL/min/kg. The Papp A→B at 2 h, 1 µM in [9] came to 5 ×10⁻⁶ cm/s.
For `Cc1cc(N(c2cc(F)c(NC(=O)c3ccnn(-c4ccc(F)cn4)c3=O)cc2F)[C@H]2C[C@H](c3ccn(C)n3)C2)c(F)cn1`, the pIC50 is 8.30 in data set [1]; 7.40 in data set [5]; 8.22 in [6]; 7.44 in data set [7]; 7.01 in data set [8]. Further, the CLhep predicted at 2 µM is 9 mL/min/kg in data set [2] and 31 mL/min/kg in [3]. The Papp A→B at 2 h, 1 µM in data set [9] is 15 ×10⁻⁶ cm/s.
In the case of `Cn1ccc([C@H]2C[C@H](N(c3cc(C(F)F)c(NC(=O)c4ccnn(-c5ccc(F)cn5)c4=O)cc3F)c3nccn4nccc34)C2)n1`, the negative-log IC50 (pIC50) is 7.49 in [1]; 7.89 in [4]; 6.28 in [5]; 7.10 in [6]; 6.03 in data set [7]; 5.48 in data set [8].
Regarding `Cn1ccc([C@H]2C[C@H](N(c3cc(F)c(NC(=O)c4ccnn(-c5ccc(F)cn5)c4=O)cc3F)c3cc(F)cn4nccc34)C2)n1`, the pIC50 was 7.96 in data set [1]; 7.89 in data set [4]; 7.43 in data set [5]; 7.48 in data set [6]; 7.39 in [7]; 6.56 in data set [8]. Moreover, the CLhep predicted at 2 µM in [2] was 3 mL/min/kg; in data set [3], 15 mL/min/kg. For the same compound, the Papp A→B at 2 h, 1 µM in [9] was 2 ×10⁻⁶ cm/s.

Usually pIC50 stands for the IC50 on a negative log10 scale, so that one unit is a factor of ten. One may read the Papp A→B as how fast a substance crosses the layer from the apical side. As usually defined, the efflux ratio is the permeability from basolateral to apical divided by that in the opposite direction, in the common usage.
